Entries after “also recorded” stand apart in the source; their conditions may differ.
Assays:
Wistar rats = assay: DNBS induced distal colitis in rats; type: in vivo
Protocol: Groups of 3 male Wistar rats (180±20 grams) fasted for 24 hours before 2,4-dinitrobenzene sulfonic acid (DNBS) or saline challenge were used. Distal colitis was induced by intra-colonic instillation of 0.5 mL of an ethanolic solution of DNBS (30 mg in 0.5 mL of a 30% ethanol in saline solution) after which 2 mL of air was injected through the cannula to ensure that the solution remained in the colon. The volume used was 0.1 mL per injection of 2 and 20 mg/mL of 7-oxodehydroepiandrosterone in a liquid formulation, was administered by subcutaneous injection once a day for 6 days. The formulation contained […] of 7-oxodehydroepiandrosterone in a non-aqueous suspension that contained 2% benzyl alcohol w/v, 0.1% Brij 96 w/v and equal volumes of PEG 300 and propylene glycol. Concentrations of 2 mg/mL and 20 mg/mL were obtained by diluting the […] with vehicle that lacked the active substance.
The first dose was given 30 minutes after DNBS challenge. Sulfasalazine (30 mg/mL in 2% Tween 80 in distilled water) was administered orally (PO) once a day (10 mL/kg/day) for 7 days, the first two doses beginning 24 hours and 2 hours before DNBS challenge. The presence of diarrhea was recorded daily by examining the anal area. Animals were fasted for 24 hours prior to being sacrificed. Animals were sacrificed on day 7 or day 8 and their colons were removed and weighed. Before removal of the colon, signs of adhesion between the colon and other organs were recorded. Also, the presence of ulcerations was noted after weighing of each colon. The “net” change of colon-to-body weight (BW) ratio was normalized relative to saline-challenged baseline group. A 30% decrease in “net” colon-to-body weight ratio was considered significant.
A total of five studies were conducted. Data from the first study are reported in this report. The 7-oxodehydroepiandrosterone at 2 and 20 mg/mL, decreased the net colon-to-body weight ratio by 19 and by 14% relative to vehicle-treated group, respectively. […] The formula 1 compound 3β,7β,17β-trihydroxyandrost-5-ene (AET) was administered by subcutaneous injections of 2 and 20 mg/day for 5 or 6 days, with the first dose injected 30 minutes post-DNBS challenge. The AET formulation was the same as the 7-oxodehydroepiandrosterone formulation, except that AET replaced 7-oxodehydroepiandrosterone. AET decreased the net colon-to-body weight ratio by 15% and 21% relative to controls (see the table below). Animals treated with AET (20 mg/kg) had no diarrhea. […] The same formulations containing BrEA hemihydrate (100 mg/mL) or dehydroepiandrosterone (20 mg/mL) decreased the net colon-to-body weight ratio by 21 and 3%, respectively relative to controls.

[1] = Pharmacokinetics of BrEA after subcutaneous dose in rabbits; type: in vivo
Protocol: The nonaqueous BrEA formulation of example 1 was administered as a single subcutaneous dose to rabbits. […] The circulating half-life of the drug in the plasma was about twelve hours.
A pharmacokinetic analysis of ^14C BrEA was conducted in New Zealand White rabbits. Twenty μCi of ^14C 16α-bromo-3-beta-hydroxy-5α-[4-^14C]-androstan-17-one (50 mCi/mmole) plus 1 mg/kg unlabeled BrEA was administered to each of three New Zealand White rabbits as a subcutaneous injection in the scapular region using an injection volume of 1 mL/kg. The drug was formulated in 25% polyethylene glycol 300, 12.5% absolute ethanol, 5% benzyl benzoate, and qs with propylene glycol. Blood samples were taken at 0.5, 1, 2, 4, 8, 12, 24 hours for all three animals, and at 48 hours for two of the animals. Twenty-four and 48 hours after administration, one and two animals respectively, were sacrificed, and the following organs/tissues were collected: brain, heart, kidneys, liver, lungs, skeletal muscle, spleen, and injection site muscle and skin. In addition to the organs and tissues, urine and feces were collected as well as the cage wash.
The average percentages of the administered dose in whole blood was calculated by multiplying the concentration of drug in whole blood by the assumed volume of blood in the animals, 200 mL. The amount of drug in the blood reaches a maximum at around 8 hours, and a small amount was still evident at 48 hours.

NK cell = NK cell counts in HIV/HCV infected patient dosed I.V. with BrEA; type: in vivo, human; conditions: predosing 28
Protocol: A patient infected with HIV and HCV was dosed I.V. with BrEA for 3 consecutive days using a formulation that contained 20 mg/mL BrEA in 45% w/v hydroxypropyl-β-cyclodextrin and saline. Four mL of the formulation (80 mg BrEA) was administered to the patient every 4 hours during the 3 day treatment period. The patient's predosing HCV level was 6.5 Log10 as measured by PCR and the HCV level was 6.2 Log10 on the first day of dosing, 5.5 Log10 on the 3rd day of dosing and 4.9 Log10 three days after the last dose was administered. HIV RNA levels as measured by PCR was 5.2 Log10 (predosing), 5.8 Log10 (first day), 5.9 Log10 (third day) and 5.4 Log10 (day 6). The NK cell counts (cells/mm^3) were 28, 41 and 38 at predosing, day 0 and day 3.

[2] = Animal 201, 24 hours, 1 mg/kg s.c.
[3] = Animal 301, 48 hours, 1 mg/kg s.c.
[4] = Animal 301, 48 hours, sample wt. 6 g
[5] = Animal 302, 48 hours, 1 mg/kg s.c.

For `C[C@]12CC[C@H](O)CC1=CC[C@@H]1[C@@H]2CC[C@]2(C)C(=O)CC[C@@H]12` [DHEA, dehydroepiandrosterone, reference compound], the “animals with severe acute inflammation” value (Wistar rats; 7 days after DNBS challenge, 3 of 10 in immunosteroid vehicle controls) was 10 animals, the “animals with moderate acute inflammation” value (Wistar rats; 7 days after DNBS challenge, 5 of 10 in immunosteroid vehicle controls) was 0 animals and the “animals with severe chronic inflammation” value (Wistar rats; 14 days after DNBS challenge, 8 of 10 in immunosteroid vehicle controls) was 3 animals. For the same compound, the “decrease of net colon-to-body weight ratio relative to vehicle/controls” value (Wistar rats; DNBS rats, 20 mg/mL formulation s.c.) was 3%, the “animals with severe ulceration” value (Wistar rats; day 7 (acute inflammation) after DNBS challenge, vehicle control 8 of 10) was 10 of 10 and the “animals with severe ulceration” value (Wistar rats; day 14 (chronic inflammation) after DNBS challenge, vehicle controls 5 of 10) was 0 of 10.

For `C[C@]12CC[C@H](O)C[C@@H]1CC[C@@H]1[C@@H]2CC[C@]2(C)C(=O)[C@H](Br)C[C@@H]12` [BrEA, 16α-bromo-3β-hydroxy-5α-androstane-17-one], the “Percentage of Drug in Organs: Brain” value [1, 2] was 0.005%, the “Percentage of Drug in Organs: Heart” value [1, 2] was 0.008% and the “Percentage of Drug in Organs: Kidneys” value [1, 2] was 0.155%. The “Percentage of Drug in Organs: Liver” value [1, 2] was 0.76%, the “Percentage of Drug in Organs: Lungs” value [1, 2] was 0.029% and the “Percentage of Drug in Organs: Spleen” value [1, 2] was 0.002%. For the same compound, the “Percentage of Drug in Organs: Skeletal muscle” value (“Percentage … Skeletal muscle” for short) ([1]; Animal 201, 24 hours, sample wt. 3.8 g) was 0.002%, the “Percentage of Drug in Organs: Skin” value ([1]; Animal 201, 24 hours, sample wt. 8 g) was 0.008% and the “Percentage of Drug in Organs: Brain” value [1, 3] was 0.002%. For the same compound, the “Percentage of Drug in Organs: Heart” value [1, 3] was 0.003%, the “Percentage of Drug in Organs: Kidneys” value [1, 3] was 0.055% and the “Percentage of Drug in Organs: Liver” value [1, 3] was 0.145%. The “Percentage of Drug in Organs: Lungs” value [1, 3] was 0.019%, the “Percentage of Drug in Organs: Spleen” value [1, 3] was 0% and the “Percentage … Skeletal muscle” value [1, 4] was 0%. For the same compound, the “Percentage of Drug in Organs: Skin” value [1, 4] was 0.002%, the “Percentage of Drug in Organs: Brain” value [1, 5] was 0% and the “Percentage of Drug in Organs: Heart” value [1, 5] was 0.002%. For the same compound, the “Percentage of Drug in Organs: Kidneys” value [1, 5] was 0.050%, the “Percentage of Drug in Organs: Liver” value [1, 5] was 0.125% and the “Percentage of Drug in Organs: Lungs” value [1, 5] was 0.011%. For the same compound, the “Percentage of Drug in Organs: Spleen” value [1, 5] was 0%, the “Percentage … Skeletal muscle” value ([1]; Animal 302, 48 hours, sample wt. 5 g) was 0% and the “Percentage of Drug in Organs: Skin” value ([1]; Animal 302, 48 hours, sample wt. 9 g) was 0.004%. The “time of maximum amount of drug in whole blood” value ([1]; rabbits, 1 mg/kg s.c.) was “around 8 hours”, the “drug in the liver” value ([1]; rabbits, 1 mg/kg s.c., 24 hours) was “approximately 0.8 % of the injected dose” and the “drug in the liver” value ([1]; rabbits, 1 mg/kg s.c., 48 hours) was ~0.12 % of the injected dose. The “drug in the liver, average” value ([1]; rabbits, 1 mg/kg s.c., average printed after the 48 hours value) was 0.13%, the accumulation in organs ([1]; rabbits, s.c. dose) was “did not accumulate to a significant extent in any major organ; also recorded: did not accumulate to a significant degree in any of the organs” and the route of excretion ([1]; rabbits, s.c. dose) was “primarily excreted in the urine”. The “circulating half-life of the drug in the plasma” value ([1]; rabbits, single s.c. dose) was “about twelve”, the “maximum concentration in the plasma” value ([1]; rabbits, single s.c. dose, at eight to twelve hours post administration) was “about 1.2 % of the injected dose” and the “drug left the injection site” value ([1]; rabbits, single subcutaneous dose, formulation of example 1, within 24 hours) was “More than 90%”. For the same compound, the NK cell counts (NK cell; day 0) was 41 cells/mm^3 and the NK cell counts (NK cell; day 3) was 38 cells/mm^3.

Reference: patent US20070275936A1, “Formulations and Treatment Methods” (priority 1998, published 2007)
